SMILES strings stand for the structures. Active and inactive are the calls of the source. No cut-off for these calls is given here. Peptide text beside a SMILES is read from it.

The target of the first test is T1, Tumor necrosis factor (Homo sapiens, UniProt P01375). Kind of test: Binding affinity to recombinant TNF-alpha (unknown origin) at 488.3 to 500 uM incubated for 10 mins by MST assay. To be noted: dose 488.3-500 µM.
T1 sequence (P01375 whole entry): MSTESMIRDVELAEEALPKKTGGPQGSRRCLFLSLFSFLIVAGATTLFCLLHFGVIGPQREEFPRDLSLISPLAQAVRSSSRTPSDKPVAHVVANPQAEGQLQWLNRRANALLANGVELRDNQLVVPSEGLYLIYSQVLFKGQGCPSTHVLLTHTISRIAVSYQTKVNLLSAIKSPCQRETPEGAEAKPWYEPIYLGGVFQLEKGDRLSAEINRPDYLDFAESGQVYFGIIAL
Consider `CC[C@H](C)[C@H](NC(=O)CNC(=O)[C@H](CC(C)C)NC(=O)[C@H](CC(C)C)NC(=O)[C@H](CO)NC(=O)[C@H](CC(C)C)NC(=O)[C@@H](NC(=O)[C@H](CCC(N)=O)NC(=O)[C@@H](N)CC(N)=O)[C@@H](C)CC)C(=O)O` (H-NQILSLLGI-OH), for which the outcome was inactive.

As to `CC[C@H](C)[C@H](NC(=O)[C@H](CCCCN)NC(=O)[C@H](CCCCN)NC(=O)[C@H](C)N)C(=O)N[C@H](C(=O)N[C@@H](CC(C)C)C(=O)N[C@@H](CCCNC(=N)N)C(=O)N[C@@H](CC(C)C)C(=O)N[C@@H](CO)C(=O)O)[C@@H](C)CC` (H-AKKIILRLS-OH), the result was inactive.

Another test has as its target T1, Tumor necrosis factor. Kind of test: Binding affinity to recombinant TNF-alpha (unknown origin) assessed as dissociation constant incubated for 10 mins by MST assay.
Conditions: not given
As a reminder, the Kd is the free concentration of one partner at which half of the binding sites on the other are occupied at equilibrium, for simple one-to-one binding. As for `C[C@H](N)C(=O)N[C@@H](CS)C(=O)N[C@@H](Cc1c[nH]cn1)C(=O)N[C@@H](C)C(=O)N[C@@H](C)C(=O)N[C@@H](C)C(=O)N1CCC[C@H]1C(=O)N[C@H](C(=O)N[C@@H](CCCNC(=N)N)C(=O)O)[C@@H](C)O` (H-ACHAAAPTR-OH), the equilibrium dissociation constant (Kd) came to 563 µM. Still for that read-out and setting: under `C[C@H](N)C(=O)N[C@@H](CS)C(=O)N[C@@H](Cc1c[nH]cn1)C(=O)N[C@@H](C)C(=O)N[C@@H](Cc1c[nH]c2ccccc12)C(=O)N[C@@H](C)C(=O)N[C@@H](C)C(=O)N[C@H](C(=O)N[C@@H](CCCNC(=N)N)C(=O)O)[C@@H](C)O` (H-ACHAWAATR-OH) stands 9.06 µM; under `C[C@H](N)C(=O)N[C@@H](CS)C(=O)N[C@@H](C)C(=O)N[C@@H](C)C(=O)N[C@@H](Cc1c[nH]c2ccccc12)C(=O)N[C@@H](C)C(=O)N1CCC[C@H]1C(=O)N[C@H](C(=O)N[C@@H](CCCNC(=N)N)C(=O)O)[C@@H](C)O` (H-ACAAWAPTR-OH), 230 µM; under `C[C@H](N)C(=O)N[C@@H](CS)C(=O)N[C@@H](Cc1c[nH]cn1)C(=O)N[C@@H](C)C(=O)N[C@@H](Cc1c[nH]c2ccccc12)C(=O)N[C@@H](C)C(=O)N1CCC[C@H]1C(=O)N[C@@H](C)C(=O)N[C@@H](CCCNC(=N)N)C(=O)O` (H-ACHAWAPAR-OH), 18 µM.

These data come from ChEMBL document CHEMBL5338783, “Discovery of an Anti-TNF-α 9-mer Peptide from a T7 Phage Display Library for the Treatment of Inflammatory Bowel Disease” (J Med Chem, 2023).
